Measured values as given in patent publication US7928238B2, “1,2,3,4-tetrahydro-quinoline derivatives as CETP inhibitors” (Janssen Pharmaceutica NV, priority 2006, dated 2011).
Where “and” joins values, the source holds several entries; their conditions need not be identical. Equal values may be shown once.

Biological target: T1, CETP (Homo sapiens, UniProt P11597)
T1 construct: from tissue; host or cells: human plasma from normal volunteers
T1 sequence (P11597 18-493): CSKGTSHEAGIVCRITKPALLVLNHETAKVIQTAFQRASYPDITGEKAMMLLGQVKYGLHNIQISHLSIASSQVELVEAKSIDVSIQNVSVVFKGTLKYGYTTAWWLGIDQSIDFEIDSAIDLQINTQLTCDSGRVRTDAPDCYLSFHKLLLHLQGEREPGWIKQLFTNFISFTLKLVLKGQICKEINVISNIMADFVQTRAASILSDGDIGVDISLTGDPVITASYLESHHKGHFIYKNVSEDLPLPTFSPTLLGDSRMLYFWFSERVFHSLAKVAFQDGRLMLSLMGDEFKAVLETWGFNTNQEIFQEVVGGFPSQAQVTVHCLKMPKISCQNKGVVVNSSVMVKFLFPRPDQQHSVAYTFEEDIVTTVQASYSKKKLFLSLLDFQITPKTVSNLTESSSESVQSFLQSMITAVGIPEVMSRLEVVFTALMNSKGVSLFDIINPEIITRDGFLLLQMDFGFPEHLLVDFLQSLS
Experiment: CETP in vitro assay (Amersham kit TRKQ7005; modified protocol in human plasma, [3H]CE-HDL transfer)
Format: biochemical
Conditions: for % Inhibition @ 1 μM / inhibition at 1 µM: 1 μM compound; for IC50: from plots of % control versus compound concentration; for inhibition at 1 µM: read-out: % Inhibition @ 1 μM
Description: The CETP inhibitory activity of the compounds was determined using a commercially available kit from Amersham Biosciences (Catalog #TRKQ7005).
Briefly, 80 μl of human plasma (obtained from normal volunteers), approximately 25 μg/ml (20 μl) of [^3H]CE-HDL (Amersham Biosciences from kit TRKQ7005) and 1 μl of compound dissolved in DMSO was incubated for at least 4 hrs at 37° C. and non-specific transfer was determined by incubating a corresponding plate at 4° C. (blank). After the incubation period, 10 μl of a solution of 1% Dextralip 50/0.5M MgCl2, pH 7.4 was added, vortexed and incubated at room temperature for 10 min. The plate was then centrifuged for 30 min at 10° C. at 300 rpm in a Sorvall RT6000B centrifuge. Fifty microliters of the supernatant was transferred to a Picoplate (Packard) containing 100 μl of Microscint 40 (Perkin Elmer) and mixed for 30 min using a plate mixer. The radioactivity was counted using a TopCount (Perkin Elmer) and the % control was determined in the samples using the following formula: % transfer relative to vehicle controls (% control)=[cpm blank−cpm test]/cpm blank/cpm control]×100. IC50s were calculated from plots of the % control versus compound concentration.

% Inhibition @ 1 μM | IC50 | inhibition at 1 µM | Structure (SMILES)
28% |  |  | OC(CN1c2cccc(-c3cccc(OC(F)(F)F)c3)c2CCC1c1cccs1)C(F)(F)F (centres unmarked) [Compound 33, 1,1,1-Trifluoro-3-[2-thiophen-2-yl-5-(3-trifluoromethoxy-phenyl)-3,4-dihydro-2H-quinolin-1-yl]-propan-2-ol]
14% |  |  | OC(CN1c2cccc(-c3cccc(OC(F)(F)F)c3)c2CCC1c1ccc(OC(F)(F)C(F)F)cc1)C(F)(F)F (centres unmarked) [Compound 22, 1,1,1-Trifluoro-3-[2-[4-(1,1,2,2-tetrafluoro-ethoxy)-phenyl]-5-(3-trifluoromethoxy-phenyl)-3,4-dihydro-2H-quinolin-1-yl]-propan-2-ol]
63% and 77% | 331 nM |  | OC(CF)CN1c2cccc(-c3cccc(OC(F)(F)F)c3)c2CCC1c1cccc(OC(F)(F)F)c1 (centres unmarked) [Compound 49, 1-[2,5-Bis-(3-trifluoromethoxy-phenyl)-3,4-dihydro-2H-quinolin-1-yl]-3-fluoro-propan-2-ol]
 | > 3000 nM | 62% | O[C@H](CN1c2cccc(-c3cccc(OC(F)(F)F)c3)c2CC[C@@H]1c1cccc(OC(F)(F)C(F)F)c1)C(F)(F)F [Compound 79, (2R, αR)-3,4-Dihydro-2-[3-(1,1,2,2-tetrafluoroethoxy)phenyl]-5-[3-(trifluoromethoxy)phenyl]-α-(trifluoromethyl)-1(2H)-quinolineethanol]
42% |  |  | Cc1cc(-c2cccc3c2CCC(c2cccc(OC(F)(F)C(F)F)c2)N3CC(O)C(F)(F)F)ccc1Cl (centres unmarked) [Compound 6, 3-{5-(4-Chloro-3-methyl-phenyl)-2-[3-(1,1,2,2-tetrafluoro-ethoxy)-phenyl]-3,4-dihydro-2H-quinolin-1-yl}-1,1,1-trifluoro-propan-2-ol]
 |  | 20% | O[C@@H](CN1c2cccc(-c3cccc(OC(F)(F)F)c3)c2CC[C@H]1c1cccc(OC(F)(F)C(F)F)c1)C(F)(F)F [Compound 80, (2S, αS)-3,4-Dihydro-2-[3-(1,1,2,2-tetrafluoroethoxy)phenyl]-5-[3-(trifluoromethoxy)phenyl]-α-(trifluoromethyl)-1(2H)-quinolineethanol]
9% |  |  | OC(CN1c2cccc(-c3cccc(OC(F)(F)F)c3)c2CCC1c1ccccc1OC(F)(F)C(F)F)C(F)(F)F (centres unmarked) [Compound 89, 1,1,1-Trifluoro-3-[2-[2-(1,1,2,2-tetrafluoro-ethoxy)-phenyl]-5-(3-trifluoromethoxy-phenyl)-3,4-dihydro-2H-quinolin-1-yl]-propan-2-ol]
43% and 55% | 84 nM and 202 nM | 54% | OC(CN1c2cccc(-c3cccc(OC(F)(F)F)c3)c2CCC1c1cccc(C(F)(F)F)c1)C(F)(F)F (centres unmarked) [Compound 17, 1,1,1-Trifluoro-3-[5-(3-trifluoromethoxy-phenyl)-2-(3-trifluoromethyl-phenyl)-3,4-dihydro-2H-quinolin-1-yl]-propan-2-ol]
4% |  |  | OC(CN1c2cccc(-c3cccc(OC(F)(F)F)c3)c2CCC1c1cccc(F)c1)C(F)(F)F (centres unmarked) [Compound 24, 1,1,1-Trifluoro-3-[2-(3-fluoro-phenyl)-5-(3-trifluoromethoxy-phenyl)-3,4-dihydro-2H-quinolin-1-yl]-propan-2-ol]
86% | 400 nM |  | CCc1cc(Oc2cccc3c2CCC(c2cccc(OC(F)(F)C(F)F)c2)N3CC(O)C(F)(F)F)ccc1Cl (centres unmarked) [Compound 85, 3-{5-(4-Chloro-3-ethyl-phenoxy)-2-[3-(1,1,2,2-tetrafluro-ethoxy)-phenyl]-3,4-dihydro-2H-quinolin-1-yl}-1,1,1-trifluoro-propan-2-ol]
 | 7 nM and 25 nM and 30 nM | 100% | OC(CN1c2cccc(-c3cccc(OC(F)(F)F)c3)c2CCC1c1cccc(OC(F)(F)C(F)F)c1)C(F)(F)F (single isomer, unassigned) [Compound 1, 1,1,1-Trifluoro-3-[2-[3-(1,1,2,2-tetrafluoro-ethoxy)-phenyl]-5-(3-trifluoromethoxy-phenyl)-3,4-dihydro-2H-quinolin-1-yl]-propan-2-ol]
